Measured values as given in patent US8138220B2, “[2-(6-fluoro-1H-indol-3-ylsulfanyl)benzyl]methyl amine for the treatment of affective disorders” (H. Lundbeck A/S, priority 2006, dated 2012).
Values joined by “and” are separate entries in the source; they are usually repeats but may differ in a detail not shown here. Identical values can stand only once.

Molecular target: T1, α1A receptor (Homo sapiens, UniProt P35348)
T1 construct: expressed in transfected cells
T1 sequence (P35348 1-466): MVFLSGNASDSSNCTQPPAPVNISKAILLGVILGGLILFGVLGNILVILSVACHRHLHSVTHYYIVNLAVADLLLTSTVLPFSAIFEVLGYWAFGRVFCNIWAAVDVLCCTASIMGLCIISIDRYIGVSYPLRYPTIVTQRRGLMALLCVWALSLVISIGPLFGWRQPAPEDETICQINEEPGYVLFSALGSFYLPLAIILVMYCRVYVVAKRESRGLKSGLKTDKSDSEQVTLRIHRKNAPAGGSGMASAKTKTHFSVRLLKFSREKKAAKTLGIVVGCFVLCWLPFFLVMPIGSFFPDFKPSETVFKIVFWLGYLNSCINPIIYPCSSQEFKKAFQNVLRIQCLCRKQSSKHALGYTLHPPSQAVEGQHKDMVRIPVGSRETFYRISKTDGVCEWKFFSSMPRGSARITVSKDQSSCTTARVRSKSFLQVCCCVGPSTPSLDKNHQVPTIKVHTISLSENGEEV
Assay: α1A receptor affinity, [3H]-Prazosin binding to membranes
Conditions: Cheng Prusoff
Procedure: On the day of the experiments membranes (see below for description of membrane preparation) are thawed and homogenized in buffer using an ultra turrax and diluted to the desired concentration (5 μg/well˜5 μg/900 μl, store on ice until use).
The experiment is initiated by mixing of 50 μl test compound, 50 μl [^3H]-Prazosin and 900 μl membranes, and the mixture is incubated for 20 minutes at 25° C. Non-specific binding is determined in the presence of 10 μM WB-4101 and the total binding is determined in the presence of buffer. After the incubation, bound ligand is separated from unbound by filtration through Unifilter GF/B, presoaked in 0.1% PEI for 30 minutes, using a Tomtec Cell Harvester program (D4.2 . . . 4) 96 well. Filters are washed 3 times with 1 ml ice-cold buffer, dried at 50° C. and 35 μl scintillation liquid/well is added to the filters. Bound radioactivity is counted in a Wallac OY 1450 MicroBeta. The affinity (Ki 10 nM) is calculated from Y=100/(1+10^(X-logIC50^)) where Y denotes % binding and X denotes the concentration of compound. […] Ki was calculated from the Cheng Prusoff equation Ki=(IC50/(1+([L]/Kd))
Cells were grown to 95% confluence, washed twice with buffer (50 mM Tris pH 7.7, 125 mM NaCl) and detached by scraping in a volume of 10 ml buffer/160 cm^2. […] Protein concentration was measured with BCA™ (Pierce #23223+23224).

SMILES: CNCc1ccccc1Sc1c[nH]c2cc(F)ccc12 [compounds of the present invention, [2-(6-fluoro-1H-indol-3-ylsulfanyl)benzyl]methyl amine]
- Ki: 14 nM and 10 nM
